Residues, ends and D or L forms follow the SMILES beside them.
Test system: Twist mRNA
Experiment: Real time RT-PCR, Twist mRNA expression
Format: cell-based, human
Text: The real-time reverse transcription polymerase chain reaction (RT-PCR) uses fluorescent reporter molecules to monitor the production of amplification products during each cycle of the PCR reaction. This combines the nucleic acid amplification and detection steps into one homogeneous assay and use of appropriate chemistries and data analysis eliminates the need for Southern blotting or DNA sequencing for amplicon identification. Its simplicity, specificity and sensitivity, together with its potential for high throughput and the ongoing introduction of new chemistries, more reliable instrumentation and improved protocols, has made real-time RT-PCR the benchmark technology for the detection and/or comparison of RNA levels.’
In order to detect and quantify the expression of specific genes at mRNA level, real-time reverse transcriptase polymerase chain reaction (Real time RT-PCR) was performed. Total RNA of samples was isolated and purified using the PureLink® RNA Mini Kit (Life technologies). The concentration of total RNA was detected by NanoDrop 2000 Spectrophotometer (Thermo Scientific). The total RNA (2000 ng) was reverse transcribed using the High-Capacity cDNA Reverse Transcription Kit (Applied Biosystems™).
The primers of target genes were TaqMan™ Gene Expression Assay for human PLAU (Hs01547054_m1), MMP-2 (Hs01548727_m1), MMP-9 (Hs00957562_m1), Snail-1 (Hs00195591_m1), Snail-2 (Hs00161904_m1), N-cadherin (Hs00983056_m1) and Twist (Hs01675818_s1). Relative quantification was done by reference to 18S ribosomal RNA (18S rRNA) and analysed using the comparative critical threshold (Ct) method
The mRNA expression of MMPs was measured using qRT-PCR. This was tested three independent times; the results are shown in Tables 9, 10 and 11 for U251, U87 cells and O81024 cells respectively. Results are reported as percent of the control cells (no treatment). Both MMP-2 and uPA were decreased in U251 by SEQ ID NO.1. […]

SMILES: CC(C)C[C@@H]1NC(=O)[C@H](C)NC(=O)[C@@H](NC(=O)[C@@H]2CCCN2C(=O)[C@@H](N)CC(C)C)CSSC(C)(C)CNC(=O)CC[C@@H](C(=O)N[C@@H](CCCNC(=N)N)C(N)=O)NC(=O)[C@H](CC(=O)O)NC(=O)[C@H](CC(N)=O)NC1=O [SEQ ID NO: 1, Leu-Pro-c(SSA*-Ala-Leu-Asn-Asp-Glu)-Arg-NH2] (HELM PEPTIDE1{L.P.C.A.L.N.D.E.R.[am]}|CHEM1{[CC(C)(CN[*:2])S[*:1]]}$PEPTIDE1,CHEM1,3:R3-1:R1|PEPTIDE1,CHEM1,8:R3-1:R2$$$V2.0; N-terminus assumed)
- mRNA expression, Twist (081024 cells, baseline expression level = 1): 0.94
- mRNA expression, Twist (U87 cells, baseline expression level = 1): 0.79
- mRNA expression, Twist (U251 cells, relative to control (no treatment)): 0.91

Source: patent publication US20240059740A1, “CYCLIC PEPTIDES AND USES THEREOF” (PRE[…] INC., priority 2020, published 2024)
